Assay results reported in patent US5210193A, “Piperazine derivatives” (American Cyanamid Company, priority 1990, dated 1993).
Converted amounts (≈) assume the structure as drawn.

How the values were obtained:
Test in all cases: in vitro antibacterial MIC, agar plate dilution
Type in all cases: cell-based
[1] = test system: Enterobacter aerogenes VGH 84-36; details: Klebsiella aerogenes, VGH8436, 18 hours, 35° C., read-out: MIC
Experimental: (§1) The in vitro antimicrobial spectrum of the compounds of ths invention were determined by the agar plate dilution method with Mueller-Hinton agar and an inoculum of each test organism of approximately 10^4 colony forming units delivered by the Steers replicating device. The minimal inhibitory concentration (MIC) in mcg/ml is defined as the lowest concentration of test compound that inhibited visible growth after 18 hours incubation at 35° C. Results are given in Table I, with the test compounds identified by the number of their hereinafter described examples.

[2] = test system: Enterobacter cloacae VGH 84-37; details: Enterobacter cloacae, VGH8437, 18 h, 35° C., read-out: MIC
Experimental: as §1

[3] = test system: Escherichia coli ATCC 25922; details: Escherichia coli, ATCC25922, 18 h, 35° C., read-out: MIC
Experimental: as §1

[4] = test system: Escherichia coli CMC 84-11; details: Escherichia coli, CMC8411, 18 h, 35° C., read-out: MIC
Experimental: as §1

Klebsiella pneumoniae AD = details: Klebsiella pneumoniae, 18 h, 35° C., read-out: MIC
Experimental: as §1

[5] = test system: Klebsiella pneumoniae MOR 84-4; details: Klebsiella pneumoniae, MOR844, 18 h, 35° C., read-out: MIC
Experimental: as §1

[6] = test system: Morganella morganii VGH 84-11; details: VGH8411, 18 hours, 35° C., read-out: MIC
Experimental: as §1

[7] = test system: Proteus rettgeri CMC 84-41; details: Providencia rettgeri, CMC8441, 18 h, 35° C., read-out: MIC
Experimental: as §1

[8] = test system: Pseudomonas aeruginosa VGH 84-4; details: Pseudomonas aeruginosa, VGH844, 18 h, 35° C., read-out: MIC
Experimental: as §1

[9] = test system: Staphylococcus aureus ATCC 25913; details: ATCC25913, 18 hours, 35° C.
Experimental: as §1

[10] = test system: Staphylococcus aureus Smith; details: Staphylococcus aureus, 18 h, 35° C., read-out: MIC
Experimental: as §1

SMILES | MIC [1] [µg/mL] | MIC [2] [µg/mL] | MIC [3] [µg/mL] | MIC [4] [µg/mL] | MIC (Klebsiella pneumoniae AD) [µg/mL] | MIC [5] [µg/mL] | MIC [6] [µg/mL] | MIC [7] [µg/mL] | MIC [8] [µg/mL] | MIC [9] [µg/mL] | MIC [10] [µg/mL]
CCn1cc(C(=O)O)c(=O)c2cc(F)c(N3CCNC(CN(C)C)C3)cc21 (stereo not shown) [Example 2, 7-[3-[(Dimethylamino)methyl]-1-piperazinyl]-1-ethyl-6-fluoro-1,4-dihvdro-4-oxo-3-quinolinecarboxylic acid] | 4 (≈ 10.6 µM) | 1 (≈ 2.66 µM) | 2 (≈ 5.31 µM) | 2 (≈ 5.31 µM) | 2 (≈ 5.31 µM) | 4 (≈ 10.6 µM) | 2 (≈ 5.31 µM) | 2 (≈ 5.31 µM) | 16 (≈ 42.5 µM) | 2 (≈ 5.31 µM) | 0.5 (≈ 1.33 µM)
CCn1cc(C(=O)O)c(=O)c2cc(F)c(N3CCNC(COC)C3)cc21 (stereo not shown) [Example 7, 1-Ethyl-6-fluoro-1,4-dihydro-7-[3-(methoxymethyl)-1-piperazinyl]-4-oxo-3-quinolinecarboxylic acid] | 0.5 (≈ 1.38 µM) | 0.25 (≈ 0.688 µM) | 0.5 (≈ 1.38 µM) | 0.25 (≈ 0.688 µM) | 0.25 (≈ 0.688 µM) | 0.5 (≈ 1.38 µM) | 0.25 (≈ 0.688 µM) | 0.5 (≈ 1.38 µM) | 8 (≈ 22 µM) | 2 (≈ 5.5 µM) | 0.5 (≈ 1.38 µM)
CCn1cc(C(=O)O)c(=O)c2cc(F)c(N3CCNC(COc4ccccc4)C3)cc21 (stereo not shown) [Example 9, 1-Ethyl-6-fluoro-1,4-dihydro-4-oxo-7-[3-(phenoxy-methyl]-1-piperazinyl]-3-quinolinecarboxylic acid] | 1 (≈ 2.35 µM) | 0.25 (≈ 0.588 µM) | 0.5 (≈ 1.18 µM) | 0.5 (≈ 1.18 µM) | 0.5 (≈ 1.18 µM) | 0.5 (≈ 1.18 µM) | 0.5 (≈ 1.18 µM) | 0.5 (≈ 1.18 µM) | 8 (≈ 18.8 µM) | 0.5 (≈ 1.18 µM) | ≤ 0.12
CCn1cc(C(=O)O)c(=O)c2cc(F)c(N3CCN(C)C(COC)C3)cc21 (stereo not shown) [Example 10, 1-Ethyl-6-fluoro-1,4-dihydro-7-[3-(methoxymethyl)-4-methyl-1-piperazinyl]-4-oxo-3-quinolinecarboxylic acid] | 2 (≈ 5.3 µM) | 1 (≈ 2.65 µM) | 2 (≈ 5.3 µM) | 1 (≈ 2.65 µM) | 1 (≈ 2.65 µM) | 2 (≈ 5.3 µM) | 2 (≈ 5.3 µM) | 0.5 (≈ 1.32 µM) | 32 (≈ 84.8 µM) | 2 (≈ 5.3 µM) | 1 (≈ 2.65 µM)
CCn1cc(C(=O)O)c(=O)c2cc(F)c(N3CCN(C)C(COc4ccccc4)C3)cc21 (stereo not shown) [Example 11, 1-Ethyl-6-fluoro-1,4-dihydro-7-[4-methyl-3-(phenoxy-methyl)-1-piperazinyl]-4-oxo-3-quinolinecarboxylic acid] | 8 (≈ 18.2 µM) | 4 (≈ 9.1 µM) | 4 (≈ 9.1 µM) | 2 (≈ 4.55 µM) | 4 (≈ 9.1 µM) | 8 (≈ 18.2 µM) | 4 (≈ 9.1 µM) | 2 (≈ 4.55 µM) | 64 (≈ 146 µM) | 2 (≈ 4.55 µM) | 1 (≈ 2.28 µM)
CCn1cc(C(=O)O)c(=O)c2cc(F)c(N3CCNC(c4ccc(Br)s4)C3)cc21 (stereo not shown) [Example 13, 7-[3-(5-Bromo-2-thienyl)-1-piperazinyl]-1-ethyl-6-fluoro-1,4-dihydro-4-oxo-3-quinolinecarboxylic acid] | > 256 | 32 (≈ 66.6 µM) | 16 (≈ 33.3 µM) | 16 (≈ 33.3 µM) | 16 (≈ 33.3 µM) | 64 (≈ 133 µM) | 16 (≈ 33.3 µM) | 16 (≈ 33.3 µM) | > 256 | 2 (≈ 4.16 µM) | 0.5 (≈ 1.04 µM)
CCn1cc(C(=O)O)c(=O)c2cc(F)c(N3CCNC(c4cccs4)C3)cc21 (stereo not shown) [Example 26, 1-Ethyl-6-fluoro-1,4-dihydro-4-oxo-7-[3-(2-thienyl)-1-piperazinyl]-3-auinolinecarboxylic acid] | 2 (≈ 4.98 µM) | 0.5 (≈ 1.25 µM) | 1 (≈ 2.49 µM) | 0.5 (≈ 1.25 µM) | 1 (≈ 2.49 µM) | 1 (≈ 2.49 µM) | 0.5 (≈ 1.25 µM) | 1 (≈ 2.49 µM) | 16 (≈ 39.9 µM) | 0.5 (≈ 1.25 µM) | 0.25 (≈ 0.623 µM)
CCn1cc(C(=O)O)c(=O)c2cc(F)c(N3CCN(C)C(c4cccs4)C3)cc21 (stereo not shown) [Example 31, 1-Ethyl-6-fluoro-1,4-dihydro-7-[4-methyl-3-(2-thienyl)piperazinyl]-4-oxo-3-quinolinecarboxylic acid] | 16 (≈ 38.5 µM) | 4 (≈ 9.63 µM) | 4 (≈ 9.63 µM) | 4 (≈ 9.63 µM) | 4 (≈ 9.63 µM) | 8 (≈ 19.3 µM) | 8 (≈ 19.3 µM) | 8 (≈ 19.3 µM) | 32 (≈ 77 µM) | 1 (≈ 2.41 µM) | 0.25 (≈ 0.602 µM)
CCn1cc(C(=O)O)c(=O)c2cc(F)c(N3CCN(C)C(c4ccco4)C3)cc21 (stereo not shown) [Example 32, 1-Ethyl-6-fluoro-7-[3-(2-furanyl)-4-methyl-1-piperazinyl]-1,4-dihydro-4-oxo-3-quinolinecarboxylic acid] | 4 (≈ 10 µM) | 1 (≈ 2.5 µM) | 1 (≈ 2.5 µM) | 1 (≈ 2.5 µM) | 2 (≈ 5.01 µM) | 2 (≈ 5.01 µM) | 2 (≈ 5.01 µM) | 2 (≈ 5.01 µM) | 16 (≈ 40.1 µM) | 1 (≈ 2.5 µM) | 0.25 (≈ 0.626 µM)
CCn1cc(C(=O)O)c(=O)c2cc(F)c(N3CCNC(c4ccc(Cl)s4)C3)cc21 (stereo not shown) [Example 34, 7-[3-(5-Chloro-2-thienyl)-1-piperazinyl]-1-ethyl-6-fluoro-1,4-dihydro-4-oxo-3-quinolinecarboxylic acid] | 4 (≈ 9.18 µM) | 1 (≈ 2.29 µM) | 1 (≈ 2.29 µM) | 1 (≈ 2.29 µM) | 1 (≈ 2.29 µM) | 2 (≈ 4.59 µM) | 1 (≈ 2.29 µM) | 1 (≈ 2.29 µM) | 16 (≈ 36.7 µM) | 0.25 (≈ 0.574 µM) | 0.25 (≈ 0.574 µM)
CCn1cc(C(=O)O)c(=O)c2cc(F)c(N3CCN(C)C(c4ccsc4)C3)cc21 (stereo not shown) [Example 35, 1Ethyl-6-fluoro-1,4-dihydro-7-[4-methyl-3-(3-thienyl)-1-piperazinyl]-4-oxo-3-quinolinecarboxylic acid] | 4 (≈ 9.63 µM) | 2 (≈ 4.81 µM) | 2 (≈ 4.81 µM) | 1 (≈ 2.41 µM) | 2 (≈ 4.81 µM) | 4 (≈ 9.63 µM) | 2 (≈ 4.81 µM) | 2 (≈ 4.81 µM) | 32 (≈ 77 µM) | 0.5 (≈ 1.2 µM) | ≤ 0.12
CCn1cc(C(=O)O)c(=O)c2cc(F)c(N3CCN(C)C(c4ccc(C)s4)C3)cc21 (stereo not shown) [Example 38, 1-Ethyl-6-fluoro-1,4-dihydro-7-[4-methyl-3-(5-methyl-2-thienyl)-1-piperazinyl]-4-oxo-3-quinolinecarboxylic acid] | 4 (≈ 9.31 µM) | 8 (≈ 18.6 µM) | 4 (≈ 9.31 µM) | 4 (≈ 9.31 µM) | 4 (≈ 9.31 µM) | 8 (≈ 18.6 µM) | 8 (≈ 18.6 µM) | 4 (≈ 9.31 µM) | > 256 | 0.25 (≈ 0.582 µM) | 0.25 (≈ 0.582 µM)
CCn1cc(C(=O)O)c(=O)c2cc(F)c(N3CCNC(c4cc(C)cs4)C3)cc21 (stereo not shown) [Example 40, 1-Ethyl-6-fluoro-1,4-dihydro-7-[3-(4-methyl-2-thienyl)-1-piperazinyl]-4-oxo-3-quinolinecarboxylic acid] | 0.5 (≈ 1.2 µM) | 0.5 (≈ 1.2 µM) | 0.5 (≈ 1.2 µM) | 0.25 (≈ 0.602 µM) | 0.5 (≈ 1.2 µM) | 0.5 (≈ 1.2 µM) | 0.5 (≈ 1.2 µM) | 0.5 (≈ 1.2 µM) | 8 (≈ 19.3 µM) | 0.25 (≈ 0.602 µM) | ≤ 0.12
CCn1cc(C(=O)O)c(=O)c2cc(F)c(N3CCNC(c4ccc(C)o4)C3)cc21 (stereo not shown) [Example 42, 1-Ethyl-6-fluoro-1,4-dihydro-7-[3-(5-methyl-2-furanyl)-1-piperazinyl]-4-oxo-3-quinolinecarboxylic acid] | 0.5 (≈ 1.25 µM) | 0.25 (≈ 0.626 µM) | 0.25 (≈ 0.626 µM) | ≤ 0.12 | ≤ 0.12 | 0.25 (≈ 0.626 µM) | 0.25 (≈ 0.626 µM) | 0.25 (≈ 0.626 µM) | 4 (≈ 10 µM) | ≤ 0.12 | ≤ 0.12
